Test systems include T-47D breast; CAKI-1 renal; SK-MEL-2 melanoma; SF-539 CNS; K-562 leukemia; OVCAR-8 ovarian; PC-3 prostate; DU-145 prostate; HL-60(TB) leukemia; HCT-15 colon.
What all share (test): NCI-60 cell line screen, 48 h

Each structure is given as a SMILES string.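 Growth conditions: 96-well plates. Treatment: test compound, 48 hours, 5 concentrations. Analysis: linear interpolation between bracketing concentrations; unreached endpoints set to highest concentration. Definition used: TGI = concentration required for complete inhibition of growth.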

In the case of `Cc1ccc([S@](=O)c2occc2C=O)cc1`, the TGI with T-47D breast is 7.11 µM; in the test on CAKI-1 renal, 30.7 µM; in the test with SK-MEL-2 melanoma, 29.2 µM; in the test on SF-539 CNS, 25.8 µM; in the test with K-562 leukemia, 4.25 µM; with OVCAR-8 ovarian it was 25.4 µM. The TGI in the test on PC-3 prostate was 10.4 µM; in the test on DU-145 prostate, 33.1 µM; with HL-60(TB) leukemia, 4.25 µM; in the test on HCT-15 colon, 9.84 µM.
Take `C[C@H](NC(=O)C(Cc1ccccc1)(Cc1ccc(O)cn1)NC(=O)c1ccccc1)c1ccccc1` (stereo not given in full): the TGI is 69.1 µM in the test with T-47D breast; 90.5 µM in the test with CAKI-1 renal; 27.6 µM in the test with SK-MEL-2 melanoma; 34.2 µM in the test with SF-539 CNS; greater than 100 µM with K-562 leukemia; 42.1 µM in the test with OVCAR-8 ovarian. For the same compound, the TGI was found to be 28.7 µM with PC-3 prostate, 35.5 µM with DU-145 prostate, 64.6 µM in the test with HL-60(TB) leukemia and 38.3 µM in the test on HCT-15 colon.
In the case of `Cc1cc(-c2nc3cc(F)ccc3s2)ccc1NC(=O)[C@@H](N)CCCCN`, the TGI in the test with T-47D breast turned out to be 17.3 µM; in the test with CAKI-1 renal, 20.3 µM; in the test with SK-MEL-2 melanoma, 8.76 µM; in the test on SF-539 CNS, 9.73 µM; in the test on K-562 leukemia it was 5.21 µM; in the test with OVCAR-8 ovarian, 11.2 µM. The TGI in the test with PC-3 prostate is 21.4 µM; in the test on DU-145 prostate, 28.4 µM; with HL-60(TB) leukemia it was 6.29 µM; in the test on HCT-15 colon, 21 µM.

(Values after PubChem BioAssay (NCI).)
